Measurements: publication PMC9005681, “Use of AD Informer Set compounds to explore validity of novel targets in Alzheimer's disease pathology” (Alzheimer's & Dementia : Translational Research & Clinical …, 2022)
Where “and” joins values, the source holds several entries; their conditions need not be identical. Equal values may be shown once.

How the values were obtained:
Experiment in all cases: PDSP GPCR panel primary binding assays at 10 μM
Details in all cases: primary assay
[1] = target: T1, cloned human or rodent CNS receptors, channels, and transporters (PDSP panel) (Homo sapiens, UniProt P08908)
T1 construct: expressed in transfected cells
T1 sequence (P08908 1-422): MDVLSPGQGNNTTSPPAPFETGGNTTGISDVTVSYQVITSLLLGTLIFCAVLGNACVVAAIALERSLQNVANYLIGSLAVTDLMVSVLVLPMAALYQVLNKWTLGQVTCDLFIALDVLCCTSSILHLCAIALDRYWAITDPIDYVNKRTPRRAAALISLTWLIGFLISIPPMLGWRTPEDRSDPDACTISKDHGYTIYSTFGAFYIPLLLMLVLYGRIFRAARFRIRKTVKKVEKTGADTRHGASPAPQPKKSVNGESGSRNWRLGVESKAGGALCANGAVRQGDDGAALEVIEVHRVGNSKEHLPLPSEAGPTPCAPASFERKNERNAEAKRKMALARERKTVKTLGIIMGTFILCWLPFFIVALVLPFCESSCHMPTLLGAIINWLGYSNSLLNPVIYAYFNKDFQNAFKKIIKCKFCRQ
Description: (§1) GPCR panel: Screening against the receptors within the PDSP panel offers an assessment of off-target pharmacological activity at cloned human or rodent CNS receptors, channels, and transporters that could confound CNS-related phenotypes. A total of 46–47 primary binding assays were run in quadruplicate on these compounds at 10 μM, with follow-up secondary binding assays in 11-point dose-response in triplicate for select compounds versus select receptors. Secondary binding assays were executed for all receptors where test compound displaced an average of >50% of radio-labeled standard ligand. As an exception, no secondary assays were carried out for H3, PBR, or GABAA. […]

[2] = target: T2, cloned human or rodent CNS receptors, channels, and transporters (PDSP panel) (Homo sapiens, UniProt P18089)
T2 construct: expressed in transfected cells
T2 sequence (P18089 1-450): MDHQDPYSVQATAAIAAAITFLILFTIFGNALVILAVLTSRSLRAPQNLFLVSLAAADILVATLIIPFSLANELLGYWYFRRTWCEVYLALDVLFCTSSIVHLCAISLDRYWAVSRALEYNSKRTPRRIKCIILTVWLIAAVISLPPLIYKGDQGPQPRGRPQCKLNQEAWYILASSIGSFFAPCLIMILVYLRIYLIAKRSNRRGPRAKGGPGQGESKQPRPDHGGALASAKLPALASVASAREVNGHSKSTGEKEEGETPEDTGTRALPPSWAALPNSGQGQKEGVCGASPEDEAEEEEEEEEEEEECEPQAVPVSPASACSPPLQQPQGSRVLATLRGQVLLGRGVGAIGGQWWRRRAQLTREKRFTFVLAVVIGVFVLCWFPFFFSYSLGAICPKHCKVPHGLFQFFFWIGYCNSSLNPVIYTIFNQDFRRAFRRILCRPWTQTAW
Description: as §1

[3] = target: T3, cloned human or rodent CNS receptors, channels, and transporters (PDSP panel) (Homo sapiens, UniProt P20309)
T3 construct: expressed in transfected cells
Description: as §1

[4] = target: T4, cloned human or rodent CNS receptors, channels, and transporters (PDSP panel) (Homo sapiens, UniProt P21918)
T4 construct: expressed in transfected cells
Description: as §1

[5] = target: T5, cloned human or rodent CNS receptors, channels, and transporters (PDSP panel) (Homo sapiens, UniProt P25100)
T5 construct: expressed in transfected cells
T5 sequence (P25100 1-572): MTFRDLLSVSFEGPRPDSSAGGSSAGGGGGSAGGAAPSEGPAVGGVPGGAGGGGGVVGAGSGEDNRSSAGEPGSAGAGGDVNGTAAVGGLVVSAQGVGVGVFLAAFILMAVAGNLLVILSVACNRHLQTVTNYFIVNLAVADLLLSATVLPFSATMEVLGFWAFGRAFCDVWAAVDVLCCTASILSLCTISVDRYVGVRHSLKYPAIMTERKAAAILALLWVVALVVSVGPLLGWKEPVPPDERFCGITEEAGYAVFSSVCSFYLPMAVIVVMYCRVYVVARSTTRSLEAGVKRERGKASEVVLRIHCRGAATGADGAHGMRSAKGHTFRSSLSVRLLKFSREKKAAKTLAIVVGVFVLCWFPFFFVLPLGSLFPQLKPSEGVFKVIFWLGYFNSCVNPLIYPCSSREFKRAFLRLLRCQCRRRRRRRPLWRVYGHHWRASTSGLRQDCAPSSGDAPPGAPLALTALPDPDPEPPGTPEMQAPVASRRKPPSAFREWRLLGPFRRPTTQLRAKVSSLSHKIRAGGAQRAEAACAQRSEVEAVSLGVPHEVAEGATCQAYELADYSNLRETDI
Description: as §1

[6] = target: T6, cloned human or rodent CNS receptors, channels, and transporters (PDSP panel) (Homo sapiens, UniProt P28566)
T6 construct: expressed in transfected cells
Description: as §1

[7] = target: T7, cloned human or rodent CNS receptors, channels, and transporters (PDSP panel) (Homo sapiens, UniProt P31645)
T7 construct: expressed in transfected cells
Description: as §1

[8] = target: T8, cloned human or rodent CNS receptors, channels, and transporters (PDSP panel) (Homo sapiens, UniProt P35372)
T8 construct: expressed in transfected cells
Description: as §1

[9] = target: T9, cloned human or rodent CNS receptors, channels, and transporters (PDSP panel) (Homo sapiens, UniProt P35462)
T9 construct: expressed in transfected cells
Description: as §1

T9 sequence (P35462 whole entry): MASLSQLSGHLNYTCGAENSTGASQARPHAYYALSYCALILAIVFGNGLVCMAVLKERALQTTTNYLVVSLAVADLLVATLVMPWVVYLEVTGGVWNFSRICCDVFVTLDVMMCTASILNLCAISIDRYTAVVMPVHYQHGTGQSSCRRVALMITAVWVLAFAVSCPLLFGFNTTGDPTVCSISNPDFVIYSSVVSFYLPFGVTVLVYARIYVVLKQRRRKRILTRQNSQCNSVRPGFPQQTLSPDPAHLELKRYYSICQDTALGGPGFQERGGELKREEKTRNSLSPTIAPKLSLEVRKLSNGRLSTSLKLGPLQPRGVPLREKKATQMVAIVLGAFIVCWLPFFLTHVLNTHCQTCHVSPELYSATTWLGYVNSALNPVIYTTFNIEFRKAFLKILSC
T6 sequence (P28566 whole entry): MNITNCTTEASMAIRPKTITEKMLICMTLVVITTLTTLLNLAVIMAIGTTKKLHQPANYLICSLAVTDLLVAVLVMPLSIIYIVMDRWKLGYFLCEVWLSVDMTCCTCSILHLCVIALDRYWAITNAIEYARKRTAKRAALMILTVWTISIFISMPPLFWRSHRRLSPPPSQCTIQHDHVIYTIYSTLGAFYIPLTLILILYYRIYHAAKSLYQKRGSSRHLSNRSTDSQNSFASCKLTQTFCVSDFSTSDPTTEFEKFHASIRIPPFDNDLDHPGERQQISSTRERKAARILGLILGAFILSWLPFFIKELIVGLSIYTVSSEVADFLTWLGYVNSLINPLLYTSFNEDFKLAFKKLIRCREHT
T8 sequence (P35372 whole entry): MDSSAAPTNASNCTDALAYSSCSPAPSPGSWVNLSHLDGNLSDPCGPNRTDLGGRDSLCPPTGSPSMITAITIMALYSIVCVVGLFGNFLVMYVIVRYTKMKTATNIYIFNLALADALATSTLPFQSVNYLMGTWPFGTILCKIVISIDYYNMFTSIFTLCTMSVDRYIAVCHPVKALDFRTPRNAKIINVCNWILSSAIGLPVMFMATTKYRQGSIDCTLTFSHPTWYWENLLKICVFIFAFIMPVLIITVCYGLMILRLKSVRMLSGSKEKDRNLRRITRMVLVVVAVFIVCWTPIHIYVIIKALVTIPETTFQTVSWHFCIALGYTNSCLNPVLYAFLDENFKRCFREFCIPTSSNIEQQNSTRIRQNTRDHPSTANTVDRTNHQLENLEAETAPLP
T3 sequence (P20309 whole entry): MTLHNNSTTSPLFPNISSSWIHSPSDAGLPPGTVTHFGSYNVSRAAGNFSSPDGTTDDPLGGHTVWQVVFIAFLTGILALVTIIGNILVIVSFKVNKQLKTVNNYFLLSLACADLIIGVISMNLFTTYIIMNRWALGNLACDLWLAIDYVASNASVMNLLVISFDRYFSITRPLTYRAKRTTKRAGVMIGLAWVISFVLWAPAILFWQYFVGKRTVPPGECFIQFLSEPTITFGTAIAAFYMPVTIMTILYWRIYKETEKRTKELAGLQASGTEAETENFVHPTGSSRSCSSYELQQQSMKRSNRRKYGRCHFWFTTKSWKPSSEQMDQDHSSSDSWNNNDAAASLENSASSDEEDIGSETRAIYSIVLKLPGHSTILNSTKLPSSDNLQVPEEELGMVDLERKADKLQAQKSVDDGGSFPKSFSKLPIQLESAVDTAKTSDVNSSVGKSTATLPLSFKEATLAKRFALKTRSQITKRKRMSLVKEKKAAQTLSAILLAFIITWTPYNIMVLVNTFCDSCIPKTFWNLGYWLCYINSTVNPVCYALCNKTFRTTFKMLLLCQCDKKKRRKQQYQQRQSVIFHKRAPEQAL
T4 sequence (P21918 whole entry): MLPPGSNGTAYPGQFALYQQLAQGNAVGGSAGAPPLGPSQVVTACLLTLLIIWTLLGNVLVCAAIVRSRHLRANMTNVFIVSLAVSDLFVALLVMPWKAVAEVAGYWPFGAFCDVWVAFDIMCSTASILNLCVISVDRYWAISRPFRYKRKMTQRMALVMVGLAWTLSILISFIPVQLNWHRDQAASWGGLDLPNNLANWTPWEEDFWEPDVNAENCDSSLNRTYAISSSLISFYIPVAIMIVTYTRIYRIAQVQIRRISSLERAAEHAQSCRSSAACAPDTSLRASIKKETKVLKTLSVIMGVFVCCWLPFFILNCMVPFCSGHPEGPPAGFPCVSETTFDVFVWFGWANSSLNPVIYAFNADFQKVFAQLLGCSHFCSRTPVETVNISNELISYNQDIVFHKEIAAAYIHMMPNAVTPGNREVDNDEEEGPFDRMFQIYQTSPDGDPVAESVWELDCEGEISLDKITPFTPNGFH
T7 sequence (P31645 whole entry): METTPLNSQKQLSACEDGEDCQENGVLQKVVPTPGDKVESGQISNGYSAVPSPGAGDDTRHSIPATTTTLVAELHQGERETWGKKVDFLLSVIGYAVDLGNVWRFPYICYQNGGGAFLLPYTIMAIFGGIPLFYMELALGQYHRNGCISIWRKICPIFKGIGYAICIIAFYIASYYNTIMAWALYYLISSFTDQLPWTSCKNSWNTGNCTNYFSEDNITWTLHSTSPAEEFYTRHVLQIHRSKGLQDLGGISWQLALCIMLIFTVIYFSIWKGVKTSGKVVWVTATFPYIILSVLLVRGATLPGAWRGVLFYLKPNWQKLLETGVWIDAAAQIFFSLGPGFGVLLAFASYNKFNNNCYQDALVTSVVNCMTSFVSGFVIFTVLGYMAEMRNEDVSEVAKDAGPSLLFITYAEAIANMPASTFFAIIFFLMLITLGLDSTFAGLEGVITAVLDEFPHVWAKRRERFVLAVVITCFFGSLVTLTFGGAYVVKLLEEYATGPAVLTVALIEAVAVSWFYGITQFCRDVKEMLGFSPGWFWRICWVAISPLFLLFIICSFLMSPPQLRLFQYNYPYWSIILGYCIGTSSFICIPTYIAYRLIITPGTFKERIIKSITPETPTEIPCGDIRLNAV

## O=C(NC1CC1)C(=O)C(Cc1ccccc1)NC(=O)[C@H]1CCC(=O)N1Cc1ccccc1 (stereo partly drawn) [UNC10302676A, ABT-957 (Alicapistat)]
[1]; 5-HT1A, mean inhibition
  Mean %: 3.84%
[1]; 5-HT1A, replicate 1
  Inhibition 1: 12.84%
[1]; 5-HT1A, replicate 2
  Inhibition 2: 2.5%
[1]; 5-HT1A, replicate 3
  Inhibition 3: 6.64%
[1]; 5-HT1A, replicate 4
  Inhibition 4: -6.64%
[2]; Alpha2B, mean inhibition
  Mean %: 8.48%
[2]; Alpha2B, replicate 1
  Inhibition 1: 16.01%
[2]; Alpha2B, replicate 2
  Inhibition 2: 17.34%
[2]; Alpha2B, replicate 3
  Inhibition 3: -9.53%
[2]; Alpha2B, replicate 4
  Inhibition 4: 10.08%
[3]; M3, mean inhibition
  Mean %: -7.1%
[3]; M3, replicate 1
  Inhibition 1: 3.98%
[3]; M3, replicate 2
  Inhibition 2: -16.69%
[3]; M3, replicate 3
  Inhibition 3: -10.47%
[3]; M3, replicate 4
  Inhibition 4: -5.21%
[4]; D5, mean inhibition
  Mean %: -6.38%
[4]; D5, replicate 1
  Inhibition 1: 0%
[4]; D5, replicate 2
  Inhibition 2: 3.82%
[4]; D5, replicate 3
  Inhibition 3: -18.95%
[4]; D5, replicate 4
  Inhibition 4: -10.39%
[5]; Alpha1D, mean inhibition
  Mean %: -2.1%
[5]; Alpha1D, replicate 1
  Inhibition 1: 4.8%
[5]; Alpha1D, replicate 2
  Inhibition 2: -9.7%
[5]; Alpha1D, replicate 3
  Inhibition 3: -4.72%
[5]; Alpha1D, replicate 4
  Inhibition 4: 1.24%
[6]; 5-HT1E, mean inhibition
  Mean %: -4.73%
[6]; 5-HT1E, replicate 1
  Inhibition 1: 3.28%
[6]; 5-HT1E, replicate 2
  Inhibition 2: -0.45%
[6]; 5-HT1E, replicate 3
  Inhibition 3: -9.69%
[6]; 5-HT1E, replicate 4
  Inhibition 4: -12.07%
[7]; SERT, mean inhibition
  Mean %: -3.96% and -1.74%
[7]; SERT, replicate 1
  Inhibition 1: 1.77% and -7.1%
[7]; SERT, replicate 2
  Inhibition 2: -9.07% and 1.55%
[7]; SERT, replicate 3
  Inhibition 3: -5.87% and 7.1%
[7]; SERT, replicate 4
  Inhibition 4: -2.67% and -8.51%
[8]; MOR, mean inhibition
  Mean %: 7.04%
[8]; MOR, replicate 1
  Inhibition 1: 10.32%
[8]; MOR, replicate 2
  Inhibition 2: 13.58%
[8]; MOR, replicate 3
  Inhibition 3: -4.06%
[8]; MOR, replicate 4
  Inhibition 4: 8.3%
[9]; D3, mean inhibition
  Mean %: 10.85%
[9]; D3, replicate 1
  Inhibition 1: 10.26%
[9]; D3, replicate 2
  Inhibition 2: -6.41%
[9]; D3, replicate 3
  Inhibition 3: 23.48%
[9]; D3, replicate 4
  Inhibition 4: 16.06%

## c1cn2cc(-c3ccc4cn[nH]c4c3)nc(Nc3ccc(N4CCOCC4)cc3)c2n1 [UNC10302678A, Entospletinib (GS-9973)]
[1]; Receptor 5-HT1A, 10 μM
  Inhibition 1: 14.91%
  Inhibition 2: -0.95%
  Inhibition 3: -3.19%
  Inhibition 4: 6.29%
[1]; Receptor 5-HT1A, 10 μM, mean of Inhibition 1-4
  Mean %: 4.27%
[2]; Receptor Alpha2B, 10 μM
  Inhibition 1: 1.15%
  Inhibition 2: 1.83%
  Inhibition 3: -12.73%
  Inhibition 4: -4.05%
[2]; Receptor Alpha2B, 10 μM, mean of Inhibition 1-4
  Mean %: -3.45%
[3]; Receptor M3, 10 μM
  Inhibition 1: 13.32%
  Inhibition 2: 23.97%
  Inhibition 3: 7.51%
  Inhibition 4: 7.37%
[3]; Receptor M3, 10 μM, mean of Inhibition 1-4
  Mean %: 13.04%
[4]; Receptor D5, 10 μM
  Inhibition 1: 5.49%
  Inhibition 2: 5.93%
  Inhibition 3: 8.99%
  Inhibition 4: 11.03%
[4]; Receptor D5, 10 μM, mean of Inhibition 1-4
  Mean %: 7.86%
[5]; Receptor Alpha1D, 10 μM
  Inhibition 1: -9.56%
  Inhibition 2: -12.54%
  Inhibition 3: -12.26%
  Inhibition 4: -10.27%
[5]; Receptor Alpha1D, 10 μM, mean of Inhibition 1-4
  Mean %: -11.16%
[6]; Receptor 5-HT1E, 10 μM
  Inhibition 1: -2.53%
  Inhibition 2: -10.95%
  Inhibition 3: -16.42%
  Inhibition 4: -0.46%
[6]; Receptor 5-HT1E, 10 μM, mean of Inhibition 1-4
  Mean %: -7.59%
[7]; Receptor SERT, 10 μM
  Inhibition 1: 60.12%
  Inhibition 2: 23.39% and 14.88%
  Inhibition 3: 22.83% and 32.36%
  Inhibition 4: 31.59% and 27.97%
[7]; Receptor SERT, 10 μM, mean of Inhibition 1-4
  Mean %: 34.48% and 22.48%
[8]; Receptor MOR, 10 μM
  Inhibition 1: -0.9%
  Inhibition 2: 12.23%
  Inhibition 3: 5.91%
  Inhibition 4: -3.58%
[8]; Receptor MOR, 10 μM, mean of Inhibition 1-4
  Mean %: 3.42%
[9]; Receptor D3, 10 μM
  Inhibition 1: -22.2%
  Inhibition 2: -12.17%
  Inhibition 3: 0%
  Inhibition 4: -11.01%
[9]; Receptor D3, 10 μM, mean of Inhibition 1-4
  Mean %: -11.35%
